The values that follow come from ChEMBL document CHEMBL4265916, “Synthesis and antiproliferative activities of novel quartenary ammonium spinosyn derivatives” (Bioorg Med Chem Lett, 2018).

Assay [1] deals with MCF7. As to the kind of experiment: Antiproliferative activity against human MCF7 cells at 50 uM after 48 hrs by MTT assay. Format: functional.
Assay [2] relates to MCF7. The experiment in a line: Antiproliferative activity against human MCF7 cells after 48 hrs by MTT assay. The note with it: MCF7, 48 h. Format: functional, cell-based.
The subject of another assay is HCT-116. As to the kind of experiment: Antiproliferative activity against human HCT116 cells after 48 hrs by MTT assay. As to conditions: HCT-116, 48 h. It is filed as functional, cell-based.
Assay [3] deals with NCI-H460. The experiment in a line: Antiproliferative activity against human NCI-H460 cells after 48 hrs by MTT assay. Format: functional, cell-based. The note with it: NCI-H460, 48 h.
Another assay deals with U-87 MG. As to the kind of experiment: Antiproliferative activity against human U87MG cells after 48 hrs by MTT assay. It is filed as functional, cell-based, U-87MG ATCC.
In assay [4] the test system is NCI-H460. As to the kind of experiment: Induction of apoptosis in human NCI-H460 cells assessed as necrotic cells at 32 uM after 48 hrs by Annexin V-FITC/propidium iodide staining-based flow cytometric analysis (reference value: 2.11%). Format: functional.
For assay [5], the system named is NCI-H460. The experiment in a line: Induction of apoptosis in human NCI-H460 cells assessed as late apoptotic cells at 32 uM after 48 hrs by Annexin V-FITC/propidium iodide staining-based flow cytometric analysis (reference value: 1.80%). It is filed as functional.
Assay [6] has as its system NCI-H460. As to the kind of experiment: Induction of apoptosis in human NCI-H460 cells assessed as early apoptotic cells at 32 uM after 48 hrs by Annexin V-FITC/propidium iodide staining-based flow cytometric analysis (reference value: 2.17%). It is filed as functional.
The subject of assay [7] is NCI-H460. The experiment in a line: Induction of apoptosis in human NCI-H460 cells assessed as viable cells at 32 uM after 48 hrs by Annexin V-FITC/propidium iodide staining-based flow cytometric analysis (reference value: 93.9%). Format: functional. The note with it: NCI-H460, 48 h, read-out: Activity.
Assay [8] concerns NCI-H460. The experiment in a line: Induction of apoptosis in human NCI-H460 cells assessed as necrotic cells at 64 uM after 48 hrs by Annexin V-FITC/propidium iodide staining-based flow cytometric analysis (reference value: 2.11%). Format: functional.
Assay [9] deals with NCI-H460. The experiment in a line: Induction of apoptosis in human NCI-H460 cells assessed as late apoptotic cells at 64 uM after 48 hrs by Annexin V-FITC/propidium iodide staining-based flow cytometric analysis (reference value: 1.80%). It is filed as functional.
For assay [10], the system named is NCI-H460. As to the kind of experiment: Induction of apoptosis in human NCI-H460 cells assessed as early apoptotic cells at 64 uM after 48 hrs by Annexin V-FITC/propidium iodide staining-based flow cytometric analysis (reference value: 2.17%). Format: functional.
Assay [11] relates to NCI-H460. As to the kind of experiment: Induction of apoptosis in human NCI-H460 cells assessed as viable cells at 64 uM after 48 hrs by Annexin V-FITC/propidium iodide staining-based flow cytometric analysis (reference value: 93.9%). It is filed as functional. As to conditions: NCI-H460, 48 h, read-out: Activity.
Assay [12] has as its system NCI-H460. The experiment in a line: Inhibition of oxygen consumption rate in human NCI-H460 cells at 32 uM after 1 hr. Format: functional.
The test system of assay [13] is NCI-H460. The experiment in a line: Growth inhibition of human NCI-H460 cells at 32 uM after 48 hrs by MTT assay. Format: functional, cell-based.
Assay [14] deals with NCI-H460. As to the kind of experiment: Induction of apoptosis in human NCI-H460 cells after 48 hrs by Annexin V-FITC/propidium iodide staining-based flow cytometric analysis. It is filed as functional, cell-based.

The source made the active and inactive calls. The calls are words filed in the database; no cut-off is given here.

Turning to `CC[C@H]1CCC[C@H](O[C@H]2CC[C@H](N(C)C)[C@@H](C)O2)[C@@H](C)C(=O)C2=C[C@@H]3[C@@H](C=C[C@@H]4C[C@@H](O[C@@H]5O[C@@H](C)[C@H](OC)[C@@H](OC)[C@H]5OC)C[C@@H]34)[C@@H]2CC(=O)O1` [SPINOSYN A], the Activity amounted to 92.6% in the assay with MCF7 [1]; 1.69% with NCI-H460 [4]; 4.41% in the assay on NCI-H460 [5]; 3.11% in the assay on NCI-H460 [6]; 2.33% in the assay on NCI-H460 [8]; 5.33% in the assay with NCI-H460 [9]. For the same molecule, the results for the Activity in the assay with NCI-H460 [10] and in the assay with NCI-H460 [14] were 4.53% and “Dose-dependent effect”, respectively. In addition, the 50% inhibitory concentration (IC50) with MCF7 [2] is 16.7 µM; in the assay with HCT-116 it was 10.7 µM; with NCI-H460 [3], 66 µM; with U-87 MG, 104 µM. In the assay on NCI-H460 [7], the viability at 32 µM stood at 90.8%. In addition, the viability at 64 µM in the assay with NCI-H460 [11] turned out to be 87.8%. Further, the inhibition result in the assay on NCI-H460 [12] was “Active”. The “growth inhibition (GI)” value in the assay on NCI-H460 [13] was “inactive”.
